Legend:
Test in all cases: Test B pre-/postemergence plant response
Type in all cases: in vivo
kochia (Kochia scoparia) = tested on: kochia (Kochia scoparia)
Outline: (§1)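 Visual injury, 0–100 scale (100 = complete control), rated against controls after 13 to 15 days in greenhouse. Pre-emergence: seeds in loam/sand soil, treated at planting. Post-emergence: 1- to 4-leaf plants (2 to 18 cm) in peat/vermiculite medium. Compounds formulated in non-phytotoxic solvent with surfactant.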

soybean (Glycine max) = tested on: soybean (Glycine max)
Outline: as §1

[1] = tested on: Surinam grass (Brachiaria decumbens)
Outline: as §1

[2] = tested on: blackgrass (Alopecurus myosuroides)
Outline: as §1

[3] = tested on: ragweed (common ragweed, Ambrosia elatior)
Outline: as §1

[4] = tested on: johnsongrass (Sorghum halepense)
Outline: as §1

[5] = tested on: pigweed (Amaranthus retroflexus)
Outline: as §1

[6] = tested on: velvetleaf (Abutilon theophrasti)
Outline: as §1

[7] = tested on: giant foxtail (Setaria faberii)
Outline: as §1

corn (Zea mays) = tested on: corn (Zea mays)
Outline: as §1

[8] = tested on: woolly cupgrass (Eriochloa villosa)
Outline: as §1

[9] = tested on: Italian ryegrass (Lolium multiflorum)
Outline: as §1

[10] = tested on: downy bromegrass (Bromus tectorum)
Outline: as §1

[11] = Postemergence, 62 g ai/ha, scale 0 (no effect) to 100 (complete control), 13 to 15 days
[12] = Postemergence, 125 g ai/ha, visual rating after 13 to 15 days, scale 0 (no effect) to 100 (complete control)
[13] = Postemergence, 250 g ai/ha, scale 0 to 100
[14] = 250 g ai/ha, Preemergence, 0 to 100 scale
[15] = Preemergence, 31 g ai/ha, scale 0 to 100 (0 no effect, 100 complete control)
[16] = Preemergence, 125 g ai/ha, 0 to 100 scale
[17] = Postemergence, 31 g ai/ha, scale 0 to 100 (0 no effect, 100 complete control)
[18] = Preemergence, 62 g ai/ha, scale 0 to 100 (0 no effect, 100 complete control)
[19] = 31 g ai/ha, postemergence, scale 0 to 100, 0 is no effect, 100 is complete control
[20] = 62 g ai/ha, postemergence, 0 is no effect, 100 is complete control, 13 to 15 days
[21] = Postemergence, 125 g ai/ha, scale 0 to 100 (0 no effect, 100 complete control)
[22] = Postemergence, 250 g ai/ha, scale 0 to 100 (0 no effect, 100 complete control)

SMILES: CCCCc1ncc(C(=O)C2=C(O)CCCC2=O)c(=O)n1-c1ccccc1 [Compound 42]
- Plant response rating, Kochia (kochia (Kochia scoparia); [11]): 100
- Plant response rating, Kochia (kochia (Kochia scoparia); [12]): 100
- Kochia plant response rating (kochia (Kochia scoparia); [13]): 100
- Plant response rating, Soybean (soybean (Glycine max); [14]): 0
- Plant response rating, Soybean (soybean (Glycine max); [11]): 90
- Plant response rating, Soybean (soybean (Glycine max); [12]): 95
- Plant response rating, Soybean (soybean (Glycine max); [15]): 0
- Soybean plant response rating (soybean (Glycine max); [16]): 0
- Plant response rating, Surinam Grass [1, 14]: 75
- Plant response rating, Surinam Grass [1, 11]: 40
- Plant response rating, Surinam Grass [1, 12]: 45
- Plant response rating, Surinam Grass [1, 15]: 0
- Surinam Grass plant response rating [1, 16]: 10
- Plant response rating, Blackgrass [2, 14]: 5
- Plant response rating, Blackgrass [2, 17]: 5
- Plant response rating, Blackgrass [2, 11]: 10
- Plant response rating, Blackgrass [2, 12]: 15
- Blackgrass plant response rating [2, 13]: 20
- Plant response rating, Blackgrass [2, 15]: 0
- Plant response rating, Blackgrass [2, 18]: 0
- Blackgrass plant response rating [2, 16]: 0
- Plant response rating, Ragweed [3, 14]: 80
- Plant response rating, Ragweed [3, 11]: 75
- Plant response rating, Ragweed [3, 12]: 85
- Plant response rating, Ragweed [3, 15]: 0
- Ragweed plant response rating [3, 16]: 25
- Plant response rating, Johnsongrass [4, 14]: 65
- Plant response rating, Johnsongrass [4, 11]: 0
- Plant response rating, Johnsongrass [4, 12]: 40
- Johnsongrass plant response rating [4, 13]: 65
- Plant response rating, Johnsongrass [4, 15]: 0
- Plant response rating, Johnsongrass [4, 18]: 0
- Johnsongrass plant response rating [4, 16]: 10
- Plant response rating, Pigweed [5, 14]: 100
- Plant response rating, Pigweed [5, 11]: 95
- Plant response rating, Pigweed [5, 12]: 100
- Plant response rating, Pigweed [5, 15]: 100
- Pigweed plant response rating [5, 16]: 100
- Plant response rating, Velvetleaf [6, 14]: 90
- Plant response rating, Velvetleaf [6, 11]: 80
- Plant response rating, Velvetleaf [6, 12]: 95
- Plant response rating, Velvetleaf [6, 15]: 75
- Velvetleaf plant response rating [6, 16]: 85
- Plant response rating, Foxtail, Giant [7, 14]: 10
- Plant response rating, Foxtail, Giant [7, 17]: 45
- Plant response rating, Foxtail, Giant [7, 11]: 65
- Plant response rating, Foxtail, Giant [7, 12]: 75
- Foxtail, Giant plant response rating [7, 13]: 85
- Plant response rating, Foxtail, Giant [7, 15]: 0
- Plant response rating, Foxtail, Giant [7, 18]: 0
- Foxtail, Giant plant response rating [7, 16]: 10
- Plant response rating, Corn (corn (Zea mays); [14]): 0
- Plant response rating, Corn (corn (Zea mays); [17]): 0
- Plant response rating, Corn (corn (Zea mays); [11]): 10
- Plant response rating, Corn (corn (Zea mays); [12]): 20
- Corn plant response rating (corn (Zea mays); [13]): 45
- Plant response rating, Corn (corn (Zea mays); [15]): 0
- Plant response rating, Corn (corn (Zea mays); [18]): 0
- Corn plant response rating (corn (Zea mays); [16]): 0
- Plant response rating, Cupgrass, Woolly [8, 14]: 5
- Plant response rating, Cupgrass, Woolly [8, 17]: 15
- Plant response rating, Cupgrass, Woolly [8, 11]: 20
- Plant response rating, Cupgrass, Woolly [8, 12]: 25
- Cupgrass, Woolly plant response rating [8, 13]: 55
- Plant response rating, Cupgrass, Woolly [8, 15]: 0
- Plant response rating, Cupgrass, Woolly [8, 18]: 0
- Cupgrass, Woolly plant response rating [8, 16]: 0
- Plant response rating, Ryegrass, Italian [9, 14]: 0
- Plant response rating, Ryegrass, Italian [9, 11]: 5
- Plant response rating, Ryegrass, Italian [9, 12]: 10
- Plant response rating, Ryegrass, Italian [9, 15]: 0
- Ryegrass, Italian plant response rating [9, 16]: 0
- Plant response rating, Bromegrass, Downy [10, 14]: 0
- Plant response rating, Bromegrass, Downy [10, 17]: 0
- Plant response rating, Bromegrass, Downy [10, 11]: 5
- Plant response rating, Bromegrass, Downy [10, 12]: 15
- Bromegrass, Downy plant response rating [10, 13]: 25
- Plant response rating, Bromegrass, Downy [10, 15]: 0
- Plant response rating, Bromegrass, Downy [10, 18]: 0
- Bromegrass, Downy plant response rating [10, 16]: 0

SMILES: COCC(C)n1c(-c2ccccc2)ncc(C(=O)C2=C(O)CCCC2=O)c1=O (stereo not shown) [Compound 107]
- Plant response rating, Kochia (kochia (Kochia scoparia); [19]): 98
- Kochia plant response rating (0 to 100 scale) (kochia (Kochia scoparia); [20]): 98
- Plant response rating, Kochia (kochia (Kochia scoparia); [21]): 100
- Plant response rating, Kochia (kochia (Kochia scoparia); [22]): 100
- Soybean plant response rating (0 to 100 scale) (soybean (Glycine max); [20]): 98
- Plant response rating, Soybean (soybean (Glycine max); [21]): 100
- Plant response rating, Soybean (soybean (Glycine max); [22]): 100
- Surinam Grass plant response rating (0 to 100 scale) [1, 20]: 75
- Plant response rating, Surinam Grass [1, 21]: 80
- Plant response rating, Surinam Grass [1, 22]: 85
- Plant response rating, Blackgrass [2, 19]: 0
- Blackgrass plant response rating (0 to 100 scale) [2, 20]: 5
- Plant response rating, Blackgrass [2, 21]: 15
- Plant response rating, Blackgrass [2, 22]: 20
- Ragweed plant response rating (0 to 100 scale) [3, 20]: 85
- Plant response rating, Ragweed [3, 21]: 95
- Plant response rating, Ragweed [3, 22]: 98
- Plant response rating, Johnsongrass [4, 19]: 60
- Johnsongrass plant response rating (0 to 100 scale) [4, 20]: 70
- Plant response rating, Johnsongrass [4, 21]: 70
- Plant response rating, Johnsongrass [4, 22]: 90
- Plant response rating, Pigweed [5, 19]: 95
- Pigweed plant response rating (0 to 100 scale) [5, 20]: 100
- Plant response rating, Pigweed [5, 21]: 100
- Plant response rating, Pigweed [5, 22]: 100
- Velvetleaf plant response rating (0 to 100 scale) [6, 20]: 100
- Plant response rating, Velvetleaf [6, 21]: 100
- Plant response rating, Velvetleaf [6, 22]: 100
- Plant response rating, Foxtail, Giant [7, 19]: 75
- Foxtail, Giant plant response rating (0 to 100 scale) [7, 20]: 80
- Plant response rating, Foxtail, Giant [7, 21]: 85
- Plant response rating, Foxtail, Giant [7, 22]: 95
- Plant response rating, Corn (corn (Zea mays); [19]): 65
- Corn plant response rating (0 to 100 scale) (corn (Zea mays); [20]): 65
- Plant response rating, Corn (corn (Zea mays); [21]): 75
- Plant response rating, Corn (corn (Zea mays); [22]): 85
- Plant response rating, Cupgrass, Woolly [8, 19]: 65
- Cupgrass, Woolly plant response rating (0 to 100 scale) [8, 20]: 65
- Plant response rating, Cupgrass, Woolly [8, 21]: 75
- Plant response rating, Cupgrass, Woolly [8, 22]: 80
- Ryegrass, Italian plant response rating (0 to 100 scale) [9, 20]: 0
- Plant response rating, Ryegrass, Italian [9, 21]: 5
- Plant response rating, Ryegrass, Italian [9, 22]: 5
- Plant response rating, Bromegrass, Downy [10, 19]: 0
- Bromegrass, Downy plant response rating (0 to 100 scale) [10, 20]: 5
- Plant response rating, Bromegrass, Downy [10, 21]: 10
- Plant response rating, Bromegrass, Downy [10, 22]: 30

— patent US8952024B2, “Herbicidal pyrimidone derivatives” (E I du Pont de Nemours and Company, priority 2009, dated 2015)
